Values after ≈ are worked out from the molar mass of the structure shown.
details: buffer; pH 7.4; 200.0 µM

Structure (SMILES)	solubility kinetic [µg/mL]
COC(=O)c1sc(NC(=O)c2c(C)noc2C)nc1C	> 44.3
Cc1ccc(-c2[nH]c(=S)[nH]c(=O)c2C#N)cc1	30.8 (≈ 127 µM)
O=C(O)c1cc(-c2cccc3ccccc23)nc2ccccc12	> 44.9
O=C(OCC(=O)N1CCCC1)c1cnc(Cl)c(Cl)c1	> 45.5
CCOC(=O)c1sc(CS(=O)(=O)c2ccc(Cl)cc2)nc1C	6.1 (≈ 17 µM)
Cc1ccc(NC(=O)C2COc3ccccc3O2)cc1 (stereo not given)	13.3 (≈ 49.4 µM)
CC(=O)c1ccc(NC(=S)NC(=O)/C=C/c2ccccc2)cc1	< 0.3
CC(=O)c1ccccc1NS(=O)(=O)c1cccc2nonc12	0.9 (≈ 2.84 µM)
Cc1ccc(CC(=O)NCCc2ccc(S(N)(=O)=O)cc2)cc1	> 49.9
Cc1csc(NC(=O)c2sccc2C)n1	> 35.7
CC(=O)NC(CC(=O)O)C(=O)O (stereo not given)	> 26.3
Cc1cc(Sc2ccc([N+](=O)[O-])cn2)ccc1Br	< 0.3
Cc1cccc2c(SCC(N)=O)nc(-c3ccccc3)nc12	< 0.2
CC(=O)Cn1cnc2c(sc3nc(C)cc(C)c32)c1=O	7.2 (≈ 25.1 µM)
Cc1ccc(S(C)(=O)=NC(=O)NC(=O)c2c(Cl)cccc2Cl)cc1 (stereo not given)	41.3 (≈ 107 µM)
Cn1c(=O)c(C(=O)NCc2ccc(Cl)cc2)c(O)c2ccccc21	< 0.4
Oc1ccc2ccccc2c1CNc1ccc(Br)cn1	1.9 (≈ 5.77 µM)
COCc1cc(C)nc(SCC(=O)Oc2ccccc2)c1C#N	29.1 (≈ 88.6 µM)
COc1ccc(C2=NOC(C(=O)Nc3ccc4c(c3)OCO4)C2)cc1 (stereo not given)	1.6 (≈ 4.7 µM)
CCOc1ccccc1Nc1ccc(C(=O)O)cc1N	37.6 (≈ 138 µM)

Structure (SMILES)	solubility kinetic [µg/mL]
O=C1COCC(=O)N1CCc1c[nH]c2ccccc12	> 38.7
O=S(=O)(Nc1cccc(CCc2ccccn2)c1)c1ccc(Cl)cc1	19.1 (≈ 51.2 µM)
CCc1cccc(CC)c1NC(=O)CNCc1cccs1	18.7 (≈ 61.8 µM)
COC(=O)CC(NC(=O)c1cccs1)c1ccc(OC)c(OC)c1 (stereo not given)	> 52.4
O=C(NCc1ccccc1)C1CCCN(c2cnccn2)C1 (stereo not given)	> 44.5
Oc1ccccc1C(=S)N1CCN(C(=S)c2ccccc2O)CC1	5.1 (≈ 14.2 µM)
CCCCNC(=O)N1CCN(C(c2ccccc2)c2ccccc2)CC1	5 (≈ 14.2 µM)
N#Cc1c(NCc2ccccc2)ccnc1Cl	20.2 (≈ 82.9 µM)
COc1ccccc1CNCC(=O)Nc1cc(S(=O)(=O)N2CCCCC2)ccc1C.O=C(O)C(=O)O	34.3
O=C(O)COCC(=O)Nc1cc(C(F)(F)F)cc(C(F)(F)F)c1	> 51.8
CCOc1ccc(N/C(C)=C/C(=O)c2ccc3c(c2)OCCO3)cc1	0.8 (≈ 2.36 µM)
COc1ccc([N+](=O)[O-])cc1NC(=O)c1ccco1	4.3 (≈ 16.4 µM)
Cc1ccc(C(=O)OCC(=O)NCc2ccc(F)cc2)o1	> 43.7
COc1ccc(Nc2nc(C)cc(C)n2)cc1Cl.Cl	> 45
Cc1oc(-c2cccs2)nc1CN1CCC(C(=O)N2CCCC2)CC1	> 53.9
Cc1ccc(NS(=O)(=O)c2cccc(C(=O)N3CCCCC3)c2)cc1	> 53.8
Cc1cc(OCC(O)CN2CCCC2)cc(C)c1Cl.Cl (stereo not given)	42.3
O=c1[nH]cnc2c1C(c1ccc(Cl)cc1)c1c(nc[nH]c1=O)O2	43.5 (≈ 132 µM)
CCSc1nnc(NC(=O)C2CSC3(C)CCC(=O)N23)s1 (stereo not given)	> 51.7
O=C(CCCn1cc([N+](=O)[O-])cn1)N1CCCCC1	> 39.9

Structure (SMILES)	solubility kinetic [µg/mL]
CN1CCCN(C(=O)COc2ccccc2Br)CC1	> 49.1
COc1ccc(Cl)cc1C(=O)OCC(=O)N1CCCC(C)C1 (stereo not given)	> 48.9
CN1CCN(C(=O)c2cc(=O)c3cc(Cl)cc(Cl)c3o2)CC1	50.5 (≈ 148 µM)
COc1ccc2oc(C(=O)OCC(=O)N3CCC(C)CC3)c(C)c2c1	41.8 (≈ 121 µM)
CCCCCCn1c(N2CCCC2)nc2c1c(=O)[nH]c(=O)n2C	> 47.9
CC1CN(C(=S)Nc2cccc(F)c2)CC(C)O1 (stereo not given)	40.2 (≈ 150 µM)
Cc1ccc2oc(C(=O)NCc3ccccc3)cc(=O)c2c1	< 0.6
CCn1c(C)nc2cc(S(=O)(=O)Nc3ccc(C)cc3)ccc21	> 49.4
COc1ccc(/C=N/NC(N)=S)cc1	> 31.4
COc1cc(CO)ccc1OCC(=O)N1CCc2ccccc21	> 47
CN1CCN(c2ncnc3nc[nH]c23)CC1	28.8 (≈ 132 µM)
CCOCCCNC(=O)c1cc2c(s1)-c1ccccc1SC2	27.6 (≈ 82.8 µM)
CSCCC(NC(=O)c1ccccc1)C(=O)OCC(=O)NCc1ccco1 (stereo not given)	> 58.6
Cl.O=C(CCN1CCOCC1)NNC(=O)c1ccc(Cl)c([N+](=O)[O-])c1	> 59
Cn1c(N)c(C(C[N+](=O)[O-])c2c(F)cccc2Cl)c(=O)n(C)c1=O (stereo not given)	> 53.5
Brc1cc2c(cc1CSc1ncccn1)OCO2	0.9 (≈ 2.77 µM)
Cc1ccc(N2C(=O)C(Cl)=C(N3CCCCCC3)C2=O)c(C)c1	4.5 (≈ 13.5 µM)
Cc1ccc(CN(C)CC(=O)Nc2ccc3c(c2)CCC3)cc1	5.4 (≈ 17.5 µM)
COc1ccc(N2CC(NC(=O)Nc3ccccc3)CC2=O)cc1 (stereo not given)	19.7 (≈ 60.5 µM)
CCOC(=O)C1CCCN(C(=O)c2ccccc2NS(=O)(=O)c2ccc(F)cc2)C1 (stereo not given)	> 65.2

— PubChem BioAssay AID1996
